Laboratory results as given in article PMC4363128 (Neuroscience, 2013).

Assays:
[1] = test system: Y1 receptors; NK1R internalization in lamina I neurons; test: NK1R internalization evoked by dorsal root stimulation in spinal cord slices; format: cell-based, rat; conditions: BIBO3304 100 nM with 100 nM [Leu^31,Pro^34]NPY
[2] = molecular target: T1, Y1 receptor (Mus musculus, UniProt Q04573); format: biochemical
T1 sequence (Q04573 1-382): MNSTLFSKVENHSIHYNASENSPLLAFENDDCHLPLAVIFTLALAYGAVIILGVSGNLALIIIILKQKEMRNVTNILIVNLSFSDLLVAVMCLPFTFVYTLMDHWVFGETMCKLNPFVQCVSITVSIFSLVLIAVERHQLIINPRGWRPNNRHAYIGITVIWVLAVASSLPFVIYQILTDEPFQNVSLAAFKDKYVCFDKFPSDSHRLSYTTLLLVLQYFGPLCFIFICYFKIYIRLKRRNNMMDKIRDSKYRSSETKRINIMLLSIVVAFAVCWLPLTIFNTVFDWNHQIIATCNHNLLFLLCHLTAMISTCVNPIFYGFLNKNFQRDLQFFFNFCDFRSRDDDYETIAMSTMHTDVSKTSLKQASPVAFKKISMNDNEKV

[3] = test system: NK1R internalization in dorsal horn lamina I neurons; format: in vivo, rat; conditions: intrathecal NPY one hour before hind paw clamp
[4] = test system: NK1R internalization in dorsal horn lamina I neurons; test: NK1R internalization evoked by non-noxious stimulus; format: in vivo, rat; conditions: intrathecal NPY, carrageenan-inflamed paw; printed 'by nearly 50%'

Row | Molecule | effect on inhibition of NK1R internalization produced by Y1 agonist [1] | IC50 [2] [nM] | inhibition of evoked NK1R internalization [3] [%] | inhibition of brush-evoked NK1R internalization [4] [%]
1 | NC(=O)NCc1ccc(CNC(=O)[C@@H](CCCN=C(N)N)NC(=O)C(c2ccccc2)c2ccccc2)cc1 [BIBO3304] | completely reversed | 7.85 |  | 
2 | Neuropeptide Y [NPY] |  |  | 50 | ~50
